# Results reported in ChEMBL document CHEMBL1201862, “PubChem BioAssay data set” (2004).
# Activity calls are given as the source filed them. For most assays here, no stated cut-off is given here; in the data, actives have a measured EC50 and inactives only a lower limit.
# Legend:
# [1] = target: Luciferin 4-monooxygenase (Photinus pyralis, UniProt P08659); experiment: firefly luciferase enzyme inhibitors, dose response, biochemical, luminescence (AID 1891)
# [2] = Luminescence Cell-Based Dose Confirmation HTS to Identify Inhibitors of Platelet Dense Granule Release. [Related pubchem assays: 1663 (Primary HTS), 1678 (Summary of Project)]; format: functional
# [3] = target: T1, Replicative DNA helicase DnaB (Mycobacterium tuberculosis, UniProt P9WMR3); experiment: DnaB intein splicing inhibitors, dose response, biochemical, cell-free fluorescence (AID 449749); format: functional
# T1 sequence (P9WMR3 whole entry): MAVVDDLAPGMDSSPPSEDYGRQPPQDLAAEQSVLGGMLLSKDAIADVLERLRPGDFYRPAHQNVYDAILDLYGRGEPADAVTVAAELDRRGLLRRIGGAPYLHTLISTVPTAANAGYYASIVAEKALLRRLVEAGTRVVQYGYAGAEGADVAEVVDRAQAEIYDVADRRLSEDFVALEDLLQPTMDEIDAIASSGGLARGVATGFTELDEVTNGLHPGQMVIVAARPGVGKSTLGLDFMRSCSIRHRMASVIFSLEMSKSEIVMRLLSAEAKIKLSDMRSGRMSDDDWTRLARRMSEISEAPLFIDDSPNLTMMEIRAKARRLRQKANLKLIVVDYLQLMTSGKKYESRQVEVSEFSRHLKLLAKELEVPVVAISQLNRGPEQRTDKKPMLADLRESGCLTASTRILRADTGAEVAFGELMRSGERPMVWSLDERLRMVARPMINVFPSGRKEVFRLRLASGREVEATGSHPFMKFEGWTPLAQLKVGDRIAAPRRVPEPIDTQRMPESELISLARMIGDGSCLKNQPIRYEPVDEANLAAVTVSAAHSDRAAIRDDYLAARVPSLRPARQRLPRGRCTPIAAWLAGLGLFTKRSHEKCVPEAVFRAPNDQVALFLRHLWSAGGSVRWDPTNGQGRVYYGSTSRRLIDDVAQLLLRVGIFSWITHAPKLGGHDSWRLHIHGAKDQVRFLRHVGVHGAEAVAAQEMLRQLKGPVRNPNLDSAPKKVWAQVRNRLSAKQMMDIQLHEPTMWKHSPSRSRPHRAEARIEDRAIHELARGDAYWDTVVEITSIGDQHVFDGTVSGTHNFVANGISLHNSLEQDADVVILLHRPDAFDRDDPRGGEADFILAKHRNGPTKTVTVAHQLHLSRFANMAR
# Protein RecA = target: T2, Protein RecA (Mycobacterium tuberculosis, UniProt P9WHJ3); experiment: Fluorescence Cell-Free Homogeneous Dose Retest to Identify Inhibitors of RecA-Intein Splicing Activity. [Related pubchem assays (depositor defined):AID2097, AID2223, AID489010, AID492950]; format: functional
# T2 sequence (P9WHJ3 whole entry): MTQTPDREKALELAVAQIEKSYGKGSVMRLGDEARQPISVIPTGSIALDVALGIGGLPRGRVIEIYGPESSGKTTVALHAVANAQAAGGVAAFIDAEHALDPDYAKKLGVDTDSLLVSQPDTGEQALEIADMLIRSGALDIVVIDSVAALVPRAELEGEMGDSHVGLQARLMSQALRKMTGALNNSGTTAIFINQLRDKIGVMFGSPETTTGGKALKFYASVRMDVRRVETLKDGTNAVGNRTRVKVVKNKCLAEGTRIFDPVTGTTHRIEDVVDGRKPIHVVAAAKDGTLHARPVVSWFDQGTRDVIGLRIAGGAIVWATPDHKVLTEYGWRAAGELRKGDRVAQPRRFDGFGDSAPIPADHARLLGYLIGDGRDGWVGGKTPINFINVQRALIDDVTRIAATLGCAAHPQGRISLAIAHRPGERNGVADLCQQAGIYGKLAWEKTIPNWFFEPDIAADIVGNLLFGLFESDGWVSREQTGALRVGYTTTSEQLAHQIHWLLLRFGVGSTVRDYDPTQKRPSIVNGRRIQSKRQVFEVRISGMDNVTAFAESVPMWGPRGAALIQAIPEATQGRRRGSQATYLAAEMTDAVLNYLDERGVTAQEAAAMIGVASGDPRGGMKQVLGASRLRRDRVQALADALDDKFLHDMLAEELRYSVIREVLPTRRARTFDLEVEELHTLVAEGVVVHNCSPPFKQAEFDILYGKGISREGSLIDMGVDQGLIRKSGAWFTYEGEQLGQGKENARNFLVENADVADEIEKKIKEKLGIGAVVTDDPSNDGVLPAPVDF
# [4] = C. albicans growth with fluconazole, confirmation, fluorescence, retest (AID 2467); format: functional, cell-based
# [5] = NIH-3T3 fibroblast cytotoxicity, dose response, cytotoxicity control, cell-based, fluorescence, Alamar Blue, secondary assay (AID 2327); format: functional;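 further: NIH-3T3 mouse fibroblasts cultured with fluconazole at 8 µg/mL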
# [6] = target: FAD-linked sulfhydryl oxidase ALR (Homo sapiens, UniProt P55789); experiment: inhibitors of human ALR sulfhydryl oxidase, dose response, biochemical, H2O2 detection, luminescence, cherry-pick (AID 493248)
# [7] = target: T3, Rac GTPase-activating protein 1 (Homo sapiens, UniProt Q9H0H5); experiment: MgcRacGAP GTPase-activating activity inhibitors, confirmation, biochemical, ADP Hunter fluorescence, primary and confirmatory (AID 624330); format: functional
# T3 sequence (Q9H0H5 whole entry): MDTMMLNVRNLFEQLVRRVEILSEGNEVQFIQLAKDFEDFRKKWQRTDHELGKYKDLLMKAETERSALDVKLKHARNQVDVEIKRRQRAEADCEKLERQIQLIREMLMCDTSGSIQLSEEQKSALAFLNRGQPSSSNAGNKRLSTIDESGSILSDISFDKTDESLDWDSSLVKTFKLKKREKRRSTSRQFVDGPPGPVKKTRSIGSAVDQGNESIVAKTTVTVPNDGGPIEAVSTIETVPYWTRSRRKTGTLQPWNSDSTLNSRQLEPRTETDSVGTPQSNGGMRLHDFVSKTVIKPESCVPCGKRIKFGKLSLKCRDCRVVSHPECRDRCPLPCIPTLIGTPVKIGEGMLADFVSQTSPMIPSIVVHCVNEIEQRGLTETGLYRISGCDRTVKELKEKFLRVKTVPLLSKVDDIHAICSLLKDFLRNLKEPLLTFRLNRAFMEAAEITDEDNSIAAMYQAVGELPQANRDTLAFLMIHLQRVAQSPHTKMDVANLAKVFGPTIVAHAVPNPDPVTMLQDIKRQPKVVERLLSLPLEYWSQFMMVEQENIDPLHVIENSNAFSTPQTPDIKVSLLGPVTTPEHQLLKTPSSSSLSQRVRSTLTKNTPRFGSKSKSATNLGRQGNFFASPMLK
# Streptokinase A = target: T4, Streptokinase A (Streptococcus pyogenes serotype M1, UniProt P10520); experiment: S. pyogenes streptokinase expression inhibitors, potency, dose response, plasminogen activation absorbance, OD405 (AID 1914); format: functional, Streptococcus pyogenes M1 GAS;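 further: secreted streptokinase activity via plasminogen activation per viability signal from cell pellet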
# T4 sequence (P10520 whole entry): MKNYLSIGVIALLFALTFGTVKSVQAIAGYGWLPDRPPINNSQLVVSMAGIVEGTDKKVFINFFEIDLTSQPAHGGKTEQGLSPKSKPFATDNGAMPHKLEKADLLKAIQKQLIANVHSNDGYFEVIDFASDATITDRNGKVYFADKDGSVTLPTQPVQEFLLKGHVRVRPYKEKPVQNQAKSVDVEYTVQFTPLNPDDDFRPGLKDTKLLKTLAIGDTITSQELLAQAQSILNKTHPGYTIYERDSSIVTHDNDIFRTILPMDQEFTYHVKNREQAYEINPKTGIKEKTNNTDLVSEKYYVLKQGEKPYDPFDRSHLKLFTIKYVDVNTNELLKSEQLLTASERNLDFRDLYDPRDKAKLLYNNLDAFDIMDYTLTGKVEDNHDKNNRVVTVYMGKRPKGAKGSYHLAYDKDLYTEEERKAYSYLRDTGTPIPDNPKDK
# Chain of FAD-linked sulfhydryl oxidase ALR (P55789 whole entry): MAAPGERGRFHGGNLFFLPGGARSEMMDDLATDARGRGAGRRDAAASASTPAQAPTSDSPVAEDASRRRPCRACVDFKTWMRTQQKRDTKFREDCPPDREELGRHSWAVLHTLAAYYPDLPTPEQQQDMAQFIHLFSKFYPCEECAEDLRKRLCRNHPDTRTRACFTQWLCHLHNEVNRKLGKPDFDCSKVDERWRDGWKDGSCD
# Chain of Luciferin 4-monooxygenase (P08659 whole entry): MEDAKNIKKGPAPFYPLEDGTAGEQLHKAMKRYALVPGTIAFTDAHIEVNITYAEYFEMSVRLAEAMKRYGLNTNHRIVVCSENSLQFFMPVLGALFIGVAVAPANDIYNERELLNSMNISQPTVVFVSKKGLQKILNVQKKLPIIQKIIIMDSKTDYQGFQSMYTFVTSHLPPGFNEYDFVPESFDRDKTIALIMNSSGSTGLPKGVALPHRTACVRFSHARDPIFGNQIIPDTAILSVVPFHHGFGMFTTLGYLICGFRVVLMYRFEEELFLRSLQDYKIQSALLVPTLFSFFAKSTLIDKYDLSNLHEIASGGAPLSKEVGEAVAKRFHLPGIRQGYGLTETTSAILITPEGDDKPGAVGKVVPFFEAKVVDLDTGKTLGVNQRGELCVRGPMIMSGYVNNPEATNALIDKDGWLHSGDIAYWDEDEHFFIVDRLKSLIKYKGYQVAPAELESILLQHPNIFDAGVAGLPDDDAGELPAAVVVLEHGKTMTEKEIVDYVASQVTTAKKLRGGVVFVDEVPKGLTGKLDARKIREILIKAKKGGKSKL
smiles,measurement,setting,value
Cc1onc(-c2ccccc2Cl)c1C(=O)N1CCc2ccccc2C1,EC50,[1],> 112 µM (not active)
same,EC50,[2],> 112 µM (not active)
COc1ccc(COC(=O)N/N=C(\C)CC(=O)Nc2ccc(Cl)cn2)cc1,AC50,[3],5.46 µM (active)
same,EC50,Protein RecA,4.27 µM (active)
Oc1ccc(O)c2c1C1c3ccccc3C2c2ccccc21,AC50,[3],34.5 µM (active)
same,EC50,[4],2.94 µM (active)
same,EC50,[5],25 µM (active)
same,EC50,Protein RecA,2.08 µM (active)
O=[N+]([O-])c1c(O)nc(/C=C\c2cccc(F)c2)nc1O,AC50,[6],1.76 µM (active)
Oc1c(C(c2cccs2)N2CCOCC2)sc2ncnn12 (stereo unspecified),EC50,[1],> 112 µM (not active)
same,EC50,[2],> 112 µM (not active)
COc1ccccc1CN1CCN(Cc2cc(OC)c(OC)cc2OC)CC1,IC50,[7],73.5 µM (active)
CCOc1cc(/C=C/c2cccc[n+]2C)ccc1O,IC50,[7],22.9 µM (active)
O=C(O)c1cccc(S(=O)(=O)Nc2ccc(O)c(Sc3nc4ccccc4s3)c2)c1,AC50,[6],0.176 µM (active)
CCn1c(SCc2cccc(C(=O)O)c2)nnc1-c1ccccc1,EC50,[1],> 112 µM (not active)
same,EC50,[2],> 112 µM (not active)
CCc1ccc(-c2cc(C)no2)cc1S(=O)(=O)NCCN1CCC(C)CC1,EC50,[1],> 112 µM (not active)
same,EC50,[2],> 112 µM (not active)
C=CCn1c(SCc2cccc(F)c2)nc2cc(C(=O)N3CCC(C(N)=O)CC3)ccc2c1=O,AC50,[6],2.27 µM (active)
O=C(N/N=C/c1ccc(O)c(O)c1)c1ccc(-n2cnnn2)cc1,IC50,[7],18.6 µM (active)
O=C1CSC(c2ccccn2)N1c1cccc(Cl)c1 (stereo unspecified),AC50,[6],0.394 µM (active)
CCOC(=O)C1CCCN(C(S)=Nc2ccc(Nc3ccccc3)cc2)C1 (stereo unspecified),IC50,[7],51 µM (active)
Cc1nc(SCc2ccc(Cl)c(Cl)c2)ncc1C(=O)O,EC50,[4],0.78 µM (active)
same,AC50,[6],0.027 µM (active)
same,EC50,[5],> 150 µM (inactive)
CC(C)NC(=S)NC(c1ccccc1)(c1ccccc1)c1ccccc1,AC50,[3],3.07 µM (active)
same,EC50,Streptokinase A,11.7 µM (active)
same,EC50,Protein RecA,136 µM (inconclusive)
O=C(O)/C=C/C(=O)Nc1ccc(SC(F)(F)C(F)(F)C(F)(F)F)cc1,AC50,[3],11.7 µM (active)
same,EC50,Protein RecA,2.59 µM (active)
CCN1CCCC1CNC(=O)CS(=O)(=O)Cc1nc(-c2ccccc2C)oc1C (stereo unspecified),EC50,[1],> 112 µM (not active)
same,EC50,[2],64.8 µM (active)
COc1ccc(C(=O)Nc2ccc3[nH]ccc3c2)cc1OC,EC50,[1],> 112 µM (not active)
same,EC50,[2],> 112 µM (not active)
O=C(NCc1ccccc1)C(c1cccnc1)N(C(=O)c1ccccn1)c1ccc(F)cc1 (stereo unspecified),EC50,[1],> 112 µM (not active)
same,EC50,[2],> 112 µM (not active)
